In PubChem BioAssay AID248 (DTP/NCI, 2004):
Several values for one entry are separate records, joined by “and”; a condition that tells them apart may be missing. Identical values can stand only once. Inconclusive results and toxic doses are left out. Cut-off read from the data, not from the text of the source: active = T/C of 150% or more; inactive = T/C below 125%.

Test system: L1210 leukemia ip in BDF1 mice, survival T/C
Assay: NCI In Vivo Anticancer Drug Screen. Data for tumor model L1210 Leukemia (intraperitoneal) in B6D2F1 (BDF1) mice
Settings: endpoint: mean survival time, higher = longer survival
Outline: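 Antitumor effect is assessed in tumor-bearing animals. Survival in the compound arm is compared with a vehicle-dosed control arm and expressed as their quotient.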

[1] = dose: 12.5 mg/kg/injection, schedule: Q04DX003 (ip), vehicle: saline
[2] = dose: 50.0 mg/kg/injection, schedule: Q04DX003 (ip), vehicle: saline
[3] = dose: 100.0 mg/kg/injection, schedule: Q01DX001 (ip), vehicle: saline
[4] = dose: 100.0 mg/kg/injection, schedule: Q04DX003 (ip), vehicle: saline
[5] = dose: 200.0 mg/kg/injection, schedule: Q01DX001 (ip), vehicle: saline
[6] = dose: 400.0 mg/kg/injection, schedule: Q01DX001 (ip), vehicle: saline
[7] = dose: 25.0 mg/kg/injection, schedule: Q01DX009 (ip), vehicle: saline
[8] = dose: 25.0 mg/kg/injection, schedule: Q04DX003 (ip), vehicle: saline
[9] = dose: 50.0 mg/kg/injection, schedule: Q01DX009 (ip), vehicle: saline
[10] = dose: 100.0 mg/kg/injection, schedule: Q04DX003 (ip), vehicle: saline with Tween-80
[11] = dose: 200.0 mg/kg/injection, schedule: Q04DX003 (ip), vehicle: saline with Tween-80
[12] = dose: 100.0 mg/kg/injection, schedule: Q01DX009 (ip), vehicle: Klucel (hydroxypropylcellulose) (HPC)
[13] = dose: 200.0 mg/kg/injection, schedule: Q01DX009 (ip), vehicle: Klucel (hydroxypropylcellulose) (HPC)
[14] = dose: 400.0 mg/kg/injection, schedule: Q01DX009 (ip), vehicle: Klucel (hydroxypropylcellulose) (HPC)

Measured: T/C

OCCN1CCN(CC/C=C2/c3ccccc3Sc3ccc(C(F)(F)F)cc32)CC1
inactive: dose: 0.78 mg/kg/injection, schedule: Q03HX024 (ip), vehicle: saline 94 % of control | dose: 1.56 mg/kg/injection, schedule: Q03HX024 (ip), vehicle: saline 103 % of control | dose: 2.0 mg/kg/injection, schedule: Q01DX009 (ip), vehicle: saline 89 % of control | dose: 2.5 mg/kg/injection, schedule: Q01DX009 (ip), vehicle: saline 114 % of control | dose: 3.12 mg/kg/injection, schedule: Q03HX024 (ip), vehicle: saline 105 % of control | dose: 4.0 mg/kg/injection, schedule: Q01DX009 (ip), vehicle: saline 98 % of control | dose: 5.0 mg/kg/injection, schedule: Q01DX009 (ip), vehicle: saline 103 % of control | dose: 6.25 mg/kg/injection, schedule: Q04DX003 (ip), vehicle: saline 101 % of control | dose: 8.0 mg/kg/injection, schedule: Q01DX009 (ip), vehicle: saline 93 % of control | dose: 10.0 mg/kg/injection, schedule: Q01DX009 (ip), vehicle: saline 116 % of control | dose: 10.0 mg/kg/injection, schedule: Q04DX003 (ip), vehicle: saline 115 % of control | [1] 110 % of control | dose: 18.75 mg/kg/injection, schedule: Q01DX001 (ip), vehicle: saline 107 % of control | dose: 20.0 mg/kg/injection, schedule: Q01DX009 (ip), vehicle: saline 95 % of control | dose: 37.5 mg/kg/injection, schedule: Q01DX001 (ip), vehicle: saline 117 % of control | [2] 121 % of control

C=C1CC2OC(=O)C(=C)C2C(OC(=O)c2ccccc2)/C=C(\C)CCC1OC(=O)c1ccccc1 (stereo not given)
inactive: dose: 100.0 mg/kg/injection, schedule: Q04DX002 (ip), vehicle: Klucel (hydroxypropylcellulose) (HPC) 108 % of control | dose: 200.0 mg/kg/injection, schedule: Q04DX002 (ip), vehicle: Klucel (hydroxypropylcellulose) (HPC) 91 % of control | dose: 400.0 mg/kg/injection, schedule: Q04DX002 (ip), vehicle: Klucel (hydroxypropylcellulose) (HPC) 97 % of control

Nc1ccc(S(=O)(=O)c2cc(CC(N)C(=O)O)cc(O)c2O)cc1 (stereo not given)
inactive: dose: 87.5 mg/kg/injection, schedule: Q01DX009 (ip), vehicle: saline 98 % of control | dose: 175.0 mg/kg/injection, schedule: Q01DX009 (ip), vehicle: saline 96 % of control | dose: 350.0 mg/kg/injection, schedule: Q01DX009 (ip), vehicle: saline 86 % of control

Nc1ncnc2c1cnn2CCCl
inactive: [3] 101 % of control | [4] 106 % of control | dose: 132.0 mg/kg/injection, schedule: Q04DX003 (ip), vehicle: saline 104 % of control and 123 % of control | [5] 101 % of control | dose: 200.0 mg/kg/injection, schedule: Q04DX003 (ip), vehicle: saline 102 % of control and 124 % of control | dose: 300.0 mg/kg/injection, schedule: Q04DX003 (ip), vehicle: saline 104 % of control | [6] 102 % of control | dose: 400.0 mg/kg/injection, schedule: Q04DX003 (ip), vehicle: saline 101 % of control

Clc1ccc2c(Cl)ccnc2c1
inactive: dose: 100.0 mg/kg/injection, schedule: Q04DX002 (ip), vehicle: gum acacia 91 % of control | dose: 200.0 mg/kg/injection, schedule: Q04DX002 (ip), vehicle: gum acacia 95 % of control

N=C(N)SCC(CSC(=N)N)c1cnnc2ccccc12 (stereo not given)
inactive: [3] 102 % of control

OCC(I)C(CO)[n+]1ccccc1 (stereo not given)
inactive: dose: 12.5 mg/kg/injection, schedule: Q01DX009 (ip), vehicle: saline 104 % of control | [1] 102 % of control | [7] 110 % of control | [8] 100 % of control | [9] 101 % of control | [2] 102 % of control

CC1C(=O)c2cc3c(cc2CCN(C)Cc2c1ccc1c2OCO1)OCO3 (stereo not given)
inactive: dose: 5.0 mg/kg/injection, schedule: Q01DX001 (ip), vehicle: saline 103 % of control | dose: 9.5 mg/kg/injection, schedule: Q01DX001 (ip), vehicle: other 93 % of control | dose: 10.0 mg/kg/injection, schedule: Q01DX001 (ip), vehicle: saline 103 % of control | dose: 19.0 mg/kg/injection, schedule: Q01DX001 (ip), vehicle: other 104 % of control | dose: 20.0 mg/kg/injection, schedule: Q01DX001 (ip), vehicle: saline 101 % of control | dose: 40.0 mg/kg/injection, schedule: Q01DX001 (ip), vehicle: saline 101 % of control

COC1=CC23CCCN2CCc2cc4c(cc2C3C1O)OCO4 (stereo not given)
inactive: [7] 93 % of control | [9] 103 % of control | dose: 55.0 mg/kg/injection, schedule: Q01DX009 (ip), vehicle: saline 98 % of control | dose: 100.0 mg/kg/injection, schedule: Q01DX009 (ip), vehicle: saline 117 % of control | dose: 110.0 mg/kg/injection, schedule: Q01DX009 (ip), vehicle: saline 107 % of control | dose: 220.0 mg/kg/injection, schedule: Q01DX009 (ip), vehicle: saline 102 % of control

CCCCCCCCC(C)NCCO (stereo not given)
inactive: dose: 9.5 mg/kg/injection, schedule: Q01DX001 (ip), vehicle: saline 96 % of control | dose: 19.0 mg/kg/injection, schedule: Q01DX001 (ip), vehicle: saline 93 % of control | dose: 38.0 mg/kg/injection, schedule: Q01DX001 (ip), vehicle: saline 90 % of control

Clc1ccc(C2OCCO2)c(Cl)c1
inactive: [3] 97 % of control | [5] 92 % of control | [6] 87 % of control

CNc1c([N+](=O)[O-])ncn1C
inactive: [1] 98 % of control | [8] 94 % of control | [2] 91 % of control | [4] 97 % of control

CCSC(Sc1ccccc1)C(SCC)C(OC(=O)c1ccccc1)C(OC(=O)c1ccccc1)C(COC(=O)c1ccccc1)OC(=O)c1ccccc1 (stereo not given)
inactive: dose: 75.0 mg/kg/injection, schedule: Q01DX001 (ip), vehicle: other 95 % of control | dose: 150.0 mg/kg/injection, schedule: Q01DX001 (ip), vehicle: other 90 % of control | dose: 300.0 mg/kg/injection, schedule: Q01DX001 (ip), vehicle: other 94 % of control

CCCCCCCC(=O)Nc1cccc(C)c1C
inactive: [10] 101 % of control | [11] 87 % of control | dose: 400.0 mg/kg/injection, schedule: Q04DX003 (ip), vehicle: saline with Tween-80 101 % of control

Cc1ccc(Cl)cc1NC(=O)COc1ccc(Cl)cc1
inactive: [12] 88 % of control | dose: 100.0 mg/kg/injection, schedule: Q04DX003 (ip), vehicle: Klucel (hydroxypropylcellulose) (HPC) 98 % of control | [13] 94 % of control | dose: 200.0 mg/kg/injection, schedule: Q04DX003 (ip), vehicle: Klucel (hydroxypropylcellulose) (HPC) 88 % of control | [14] 91 % of control | dose: 400.0 mg/kg/injection, schedule: Q04DX003 (ip), vehicle: Klucel (hydroxypropylcellulose) (HPC) 103 % of control

Oc1ccc(O)c(-c2ccccc2)c1
inactive: dose: 100.0 mg/kg/injection, schedule: Q01DX001 (ip), vehicle: carboxymethylcellulose (CMC) 93 % of control | dose: 200.0 mg/kg/injection, schedule: Q01DX001 (ip), vehicle: carboxymethylcellulose (CMC) 101 % of control

C/C=C/Cn1cnc2c1c(=O)n(C)c(=O)n2C
inactive: [10] 95 % of control | [11] 95 % of control

CCOc1ccc(NC(=S)NCCc2ccccc2)cc1
inactive: [12] 102 % of control | [13] 102 % of control | [14] 105 % of control
